# Experimental data as given in US6107034A, “GATA-3 expression in human breast carcinoma” (The Board of Trustees of the Leland Stanford Junior …, priority 1998, dated 2000).
# B1: mutant GATA oligonucleotide (dsDNA)
# DNA 1: CACTTCTTAACAGAAAGTCTTAACTCT
# DNA 2: AGAGTTAAGACTTTCTGTTAAGAAGTG
# modifications: [NONE]
# Experiments:
# [1] = tested on: MCF7 cells; experiment: Northern blot of MCF7 cells in the presence and absence of β-estradiol; type: cell-based, human; conditions: 1×10^-8 M β-estradiol for three days
# Protocol: All cell lines were obtained from American Type Culture Collection (ATCC, Rockville, Md.) and were maintained as described previously. MCF7 cells that were induced with estradiol were grown under normal conditions until approximately 25% confluence. The media was subsequently changed to phenol-red free Minimal Essential Media (Gibco BRL, Gaithersburg, Md.) supplemented with 10% charcoal-stripped fetal calf serum, 10 U/ml penicillin G, 10 μg/ml streptomycin, 6 ng/ml bovine insulin for six days. MCF7 cells were induced with 1×10^-8 M water soluble β-estradiol (Sigma Chemical Company, St. Louis, Mo.) for three days.
# Poly(A+)mRNA was isolated from breast carcinoma cell lines and analyzed by Northern blot as described previously (Carmeci et al. (1997) Genomics 45, 607-617). The GATA-3 cDNA probe was prepared by reverse transcribing 1.6 μg of MCF7 poly(A)+RNA using the GeneAmp® RNA PCR Kit (Perkin Elmer, Foster City, Calif.) as per the manufacturer's recommendations. Resultant cDNA was used as template to PCR amplify (GeneAmp® PCR Kit, Perkin Elmer) the region of the GATA-3 cDNA from +530 to +1712 (numbered in accordance with the GATA-3 cDNA sequence, Genbank accession number X55122) using primers GATA3-2 (SEQ ID NO:3) [5-[…]-3'] and GATA3-4 (SEQ ID NO:4) [5'-[…]-3']. […]
# [2] = tested on: free GATA-3; experiment: Gel retardation assay, free GATA-3 binding to GATA DNA probe; set-up: species or system human; conditions: 1 μM, gel shift
# Text: Acids Res 11, 1475-1489. […] (Santa Cruz Biotechnology) was also used as a competitor.
# [3] = biological target: GATA-3 (TnT-GATA3) (Homo sapiens, UniProt P23771 P23771:1-443); experiment: competition; mutant cold competitor at 100-fold molar excess; text states only appropriate sequence specificity by gel shift competition; conditions: tags: none stated
# GATA-3 (TnT-GATA3), sequence (P23771 whole entry, one chain of several): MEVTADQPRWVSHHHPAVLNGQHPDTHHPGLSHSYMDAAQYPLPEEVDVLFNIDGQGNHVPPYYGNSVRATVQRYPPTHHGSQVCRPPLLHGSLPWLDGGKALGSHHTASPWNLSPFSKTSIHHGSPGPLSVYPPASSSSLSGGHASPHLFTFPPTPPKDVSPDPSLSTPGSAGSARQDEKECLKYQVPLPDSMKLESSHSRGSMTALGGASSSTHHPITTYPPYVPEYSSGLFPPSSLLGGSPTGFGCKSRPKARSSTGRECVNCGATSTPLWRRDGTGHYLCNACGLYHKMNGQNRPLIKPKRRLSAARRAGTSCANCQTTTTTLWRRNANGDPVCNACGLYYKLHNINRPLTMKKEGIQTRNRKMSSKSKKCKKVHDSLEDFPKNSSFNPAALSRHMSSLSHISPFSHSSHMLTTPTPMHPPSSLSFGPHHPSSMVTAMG
# Protocol: Acids Res* 11, 1475–1489. […] (Santa Cruz Biotechnology) was also used as a competitor.
# It was important to determine if functional GATA-3 protein is expressed in these cells. The GATA-3 cDNA was cloned from the MCF7 cells and GATA-3 protein was expressed using in vitro transcription/translation. […] MCF7 nuclear extracts were also tested for GATA binding activity.
molecule,measurement,setting,value
"C[C@]12CC[C@@H]3c4ccc(O)cc4CC[C@H]3[C@@H]1CC[C@@H]2O [estradiol, β-estradiol]",expression of GATA-3 mRNA,[1],did not change
same,pS2 expression (mRNA),[1],induced
CC/C(=C(\c1ccccc1)c1ccc(OCCN(C)C)cc1)c1ccccc1 [tamoxifen],interference with free GATA-3 binding DNA,[2],does not interfere with free GATA-3 binding DNA
B1,binding result,[3],no binding
